Species on record: Rattus norvegicus
Assay: DrugMatrix - Regimen: Daily Repeat
Format: toxicity, organism-based, Sprague-Dawley
Set-up: regimen Daily Repeat, gender Male, age 6-8 weeks
Conditions: in vivo, po, route oral GAVAGE, vehicle .5 % CMC; for ABSOLUTE BASOPHIL / ABSOLUTE EOSINOPHIL / ABSOLUTE LYMPHOCYTE / ABSOLUTE MONOCYTE / ABSOLUTE SEGMENTED NEUTROPHIL / BASOPHIL / EOSINOPHIL / ERYTHROCYTE COUNT / HEMATOCRIT / HEMOGLOBIN / LEUKOCYTE COUNT / LYMPHOCYTE / MEAN CORPUSCULAR HEMOGLOBIN / MEAN CORPUSCULAR HEMOGLOBIN CONCENTRATION / MEAN CORPUSCULAR VOLUME / MONOCYTE / NEUTROPHIL / NUCLEATED RED BLOOD CELLS / PLATELET COUNT: tissue Blood; for ALANINE AMINOTRANSFERASE / ALBUMIN / ALKALINE PHOSPHATASE / ASPARTATE AMINOTRANSFERASE / BLOOD UREA NITROGEN / CARBON DIOXIDE / CHLORIDE / CHOLESTEROL / CREATINE PHOSPHOKINASE / CREATININE / GLUCOSE / LACTATE DEHYDROGENASE / LIPASE / PHOSPHORUS / POTASSIUM / SODIUM / TOTAL BILIRUBIN / TOTAL PROTEIN / URIC ACID: tissue Plasma
[1] = 0 mg/kg, 72 h, dose level Control, time 3 day
[2] = 0 mg/kg, 120 h, dose level Control, time 5 day
[3] = 47 mg/kg, 72 h, dose level High, time 3 day

In the case of `CN(C)C(=O)C(CCN1CCC(O)(c2ccc(Cl)cc2)CC1)(c1ccccc1)c1ccccc1` [LOPERAMIDE], the “ABSOLUTE BASOPHIL” value [1] is reported as 0 CELLS/uL, the “ABSOLUTE EOSINOPHIL” value [1] is reported as 0 CELLS/uL and the “ABSOLUTE LYMPHOCYTE” value [1] is reported as 12191.17 CELLS/uL. For the same compound, the “ABSOLUTE MONOCYTE” value [1] was 183.17 CELLS/uL, the “ABSOLUTE SEGMENTED NEUTROPHIL” value [1] was 1192.33 CELLS/uL and the BASOPHIL [1] was 0%. For the same compound, the EOSINOPHIL [1] was 0%, the “ERYTHROCYTE COUNT” value [1] was 5.51 x10E6/uL and the HEMATOCRIT [1] was 35.45%. For the same compound, the HEMOGLOBIN [1] was 13.82 G/DL, the “LEUKOCYTE COUNT” value [1] was 13.57 x10E3/uL and the LYMPHOCYTE [1] was 89.83%. The “MEAN CORPUSCULAR HEMOGLOBIN” value [1] was 25.1 pg, the “MEAN CORPUSCULAR HEMOGLOBIN CONCENTRATION” value [1] was 38.98 G/DL and the “MEAN CORPUSCULAR VOLUME” value [1] was 64.42 fL. For the same compound, the MONOCYTE [1] was 1.33%, the NEUTROPHIL [1] was 8.83% and the “NUCLEATED RED BLOOD CELLS” value [1] was 0 /100WBC. For the same compound, the “PLATELET COUNT” value [1] was 1118.17 x10E3/uL, the “ALANINE AMINOTRANSFERASE” value [1] was 55 u/L and the ALBUMIN [1] was 4.15 G/DL. For the same compound, the “ALKALINE PHOSPHATASE” value [1] was 449.5 u/L, the “ASPARTATE AMINOTRANSFERASE” value [1] was 112.83 u/L and the “BLOOD UREA NITROGEN” value [1] was 17.33 mg/dL. The “CARBON DIOXIDE” value [1] was 29.5 mmol/L, the CHLORIDE [1] was 101 MEQ/L and the CHOLESTEROL [1] was 70 mg/dL. The “CREATINE PHOSPHOKINASE” value [1] was 1325.83 u/L, the CREATININE [1] was 0.18 mg/dL and the GLUCOSE [1] was 171.5 mg/dL. For the same compound, the “LACTATE DEHYDROGENASE” value [1] was 386 u/L, the LIPASE [1] was 10 u/L and the PHOSPHORUS [1] was 11.57 mg/dL. The POTASSIUM [1] was 6.21 MEQ/L, the SODIUM [1] was 141.65 MEQ/L and the “TOTAL BILIRUBIN” value [1] was 0.15 mg/dL. The “TOTAL PROTEIN” value [1] was 5.75 G/DL, the “URIC ACID” value [1] was 1.28 mg/dL and the “ABSOLUTE BASOPHIL” value [2] was 0 CELLS/uL. The “ABSOLUTE EOSINOPHIL” value [2] was 138.17 CELLS/uL, the “ABSOLUTE LYMPHOCYTE” value [2] was 13283.17 CELLS/uL and the “ABSOLUTE MONOCYTE” value [2] was 303.83 CELLS/uL. For the same compound, the “ABSOLUTE SEGMENTED NEUTROPHIL” value [2] was 1308.17 CELLS/uL, the BASOPHIL [2] was 0% and the EOSINOPHIL [2] was 1%. For the same compound, the “ERYTHROCYTE COUNT” value [2] was 5.32 x10E6/uL, the HEMATOCRIT [2] was 33.8% and the HEMOGLOBIN [2] was 13.63 G/DL. For the same compound, the “LEUKOCYTE COUNT” value [2] was 15.03 x10E3/uL, the LYMPHOCYTE [2] was 88.33% and the “MEAN CORPUSCULAR HEMOGLOBIN” value [2] was 25.68 pg. The “MEAN CORPUSCULAR HEMOGLOBIN CONCENTRATION” value [2] was 40.35 G/DL, the “MEAN CORPUSCULAR VOLUME” value [2] was 63.67 fL and the MONOCYTE [2] was 1.83%. For the same compound, the NEUTROPHIL [2] was 8.83%, the “NUCLEATED RED BLOOD CELLS” value [2] was 0 /100WBC and the “PLATELET COUNT” value [2] was 1097.5 x10E3/uL. The “ALANINE AMINOTRANSFERASE” value [2] was 54.5 u/L, the ALBUMIN [2] was 4.27 G/DL and the “ALKALINE PHOSPHATASE” value [2] was 337 u/L. The “ASPARTATE AMINOTRANSFERASE” value [2] was 94.67 u/L, the “BLOOD UREA NITROGEN” value [2] was 17 mg/dL and the “CARBON DIOXIDE” value [2] was 28.33 mmol/L. For the same compound, the CHLORIDE [2] was 101.5 MEQ/L, the CHOLESTEROL [2] was 71.33 mg/dL and the “CREATINE PHOSPHOKINASE” value [2] was 628.17 u/L. For the same compound, the CREATININE [2] was 0.19 mg/dL, the GLUCOSE [2] was 177.83 mg/dL and the “LACTATE DEHYDROGENASE” value [2] was 500.5 u/L. The LIPASE [2] was 9.5 u/L, the PHOSPHORUS [2] was 12.3 mg/dL and the POTASSIUM [2] was 5.63 MEQ/L. The SODIUM [2] was 143.03 MEQ/L, the “TOTAL BILIRUBIN” value [2] was 0.2 mg/dL and the “TOTAL PROTEIN” value [2] was 6.02 G/DL. The “URIC ACID” value [2] was 1.5 mg/dL, the “ABSOLUTE BASOPHIL” value [3] was 0 CELLS/uL and the “ABSOLUTE EOSINOPHIL” value [3] was 41.67 CELLS/uL. The “ABSOLUTE LYMPHOCYTE” value [3] was 10763.67 CELLS/uL, the “ABSOLUTE MONOCYTE” value [3] was 116.33 CELLS/uL and the “ABSOLUTE SEGMENTED NEUTROPHIL” value [3] was 1178.33 CELLS/uL. For the same compound, the BASOPHIL [3] was 0%, the EOSINOPHIL [3] was 0.33% and the “ERYTHROCYTE COUNT” value [3] was 5.35 x10E6/uL. For the same compound, the HEMATOCRIT [3] was 35.5%, the HEMOGLOBIN [3] was 13.67 G/DL and the “LEUKOCYTE COUNT” value [3] was 12.1 x10E3/uL. For the same compound, the LYMPHOCYTE [3] was 89%, the “MEAN CORPUSCULAR HEMOGLOBIN” value [3] was 25.6 pg and the “MEAN CORPUSCULAR HEMOGLOBIN CONCENTRATION” value [3] was 38.47 G/DL. The “MEAN CORPUSCULAR VOLUME” value [3] was 66.47 fL, the MONOCYTE [3] was 1% and the NEUTROPHIL [3] was 9.67%. For the same compound, the “NUCLEATED RED BLOOD CELLS” value [3] was 0 /100WBC, the “PLATELET COUNT” value [3] was 1353 x10E3/uL and the “ALANINE AMINOTRANSFERASE” value [3] was 75 u/L. The ALBUMIN [3] was 3.9 G/DL, the “ALKALINE PHOSPHATASE” value [3] was 286.67 u/L and the “ASPARTATE AMINOTRANSFERASE” value [3] was 88 u/L. The “BLOOD UREA NITROGEN” value [3] was 15 mg/dL, the “CARBON DIOXIDE” value [3] was 30.67 mmol/L and the CHLORIDE [3] was 102 MEQ/L. The CHOLESTEROL [3] was 68 mg/dL, the “CREATINE PHOSPHOKINASE” value [3] was 336.67 u/L and the CREATININE [3] was 0.15 mg/dL. For the same compound, the GLUCOSE [3] was 144.33 mg/dL, the “LACTATE DEHYDROGENASE” value [3] was 285.33 u/L and the LIPASE [3] was 9.33 u/L. The PHOSPHORUS [3] was 11.33 mg/dL, the POTASSIUM [3] was 6.22 MEQ/L and the SODIUM [3] was 144.77 MEQ/L. The “TOTAL BILIRUBIN” value [3] was 0.1 mg/dL, the “TOTAL PROTEIN” value [3] was 5.5 G/DL and the “URIC ACID” value [3] was 1.43 mg/dL.

— ChEMBL document CHEMBL3885881, “DrugMatrix”
